Results: patent US11945822B2, “Pyrazolo-triazine and/or pyrazolo-pxrimidine derivatives as selective inhibitor of cyclin dependent kinase” (QURIENT CO., LTD., priority 2018, dated 2024)

The molecules below were run against T1, CDK7/Cyclin H/MNAT1 (Homo sapiens, UniProt P50613) (assay: Enzymatic assay for CDK7 (FRET based LANCE Ultra kinase assay)). Conditions: CDK7 over CDK1.
T1 construct: purchased Invitrogen PR6749B
Type: biochemical
Protocol: (§1) Enzymatic Binding Assay Protocol for CDK1, CDK2, CDK5 and CDK7
Inhibition activity of the respective compound on CDK kinase under Km value of ATP was tested in FRET based The LANCE® Ultra kinase assay (Perkin Elmer), which uses a ULight™-labeled peptide substrate and an appropriate Europium-labeled anti-phospho-antibody. […] After 1 min centrifugation at 1000 rpm, Purified CDKs/Cyclin complex were added following concentrations respectively. […] Data was analyzed using XL Fit software.

T1 sequence (P50613 whole entry): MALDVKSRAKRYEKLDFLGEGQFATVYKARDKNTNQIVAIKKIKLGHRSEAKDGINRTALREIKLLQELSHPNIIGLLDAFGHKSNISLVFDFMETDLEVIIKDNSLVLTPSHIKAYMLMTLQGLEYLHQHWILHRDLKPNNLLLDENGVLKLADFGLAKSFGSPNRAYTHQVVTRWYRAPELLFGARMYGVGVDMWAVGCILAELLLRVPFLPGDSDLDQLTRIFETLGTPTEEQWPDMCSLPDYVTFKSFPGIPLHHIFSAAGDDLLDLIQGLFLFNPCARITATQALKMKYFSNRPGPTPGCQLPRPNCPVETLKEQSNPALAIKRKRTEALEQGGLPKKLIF
T1 sequence (P51946 whole entry partner): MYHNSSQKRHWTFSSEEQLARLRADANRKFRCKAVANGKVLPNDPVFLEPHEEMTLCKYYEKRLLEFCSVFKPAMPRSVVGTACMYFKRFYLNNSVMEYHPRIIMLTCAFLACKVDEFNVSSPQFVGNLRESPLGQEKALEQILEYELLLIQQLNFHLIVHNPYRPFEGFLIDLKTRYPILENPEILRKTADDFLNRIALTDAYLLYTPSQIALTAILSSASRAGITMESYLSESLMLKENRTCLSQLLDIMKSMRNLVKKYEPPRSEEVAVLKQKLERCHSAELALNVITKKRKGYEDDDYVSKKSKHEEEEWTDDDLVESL
T1 sequence (P51948 whole entry partner): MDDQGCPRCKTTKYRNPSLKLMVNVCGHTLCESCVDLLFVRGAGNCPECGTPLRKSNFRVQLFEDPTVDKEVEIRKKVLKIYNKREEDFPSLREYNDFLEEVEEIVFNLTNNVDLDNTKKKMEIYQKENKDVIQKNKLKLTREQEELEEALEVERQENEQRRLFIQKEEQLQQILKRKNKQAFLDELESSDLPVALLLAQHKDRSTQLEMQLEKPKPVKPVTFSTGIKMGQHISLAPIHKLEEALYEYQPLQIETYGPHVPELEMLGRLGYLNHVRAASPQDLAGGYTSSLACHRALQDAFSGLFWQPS

| CDK1/CDK7: Selectivity of CDK7 inhibition over CDK1 inhibition | SMILES |
| --- | --- |
| A (A=greater than 200 fold) | CC(C)c1cnn2c(NCc3ccccc3-n3cccn3)nc(-c3cccc(C4CCNCC4)c3)nc12 [Compound 165] |
| A (A=greater than 200 fold) | CC(C)c1cnn2c(NCc3ccccc3-n3cccn3)nc(-c3cccc(N4CCNCC4)c3)nc12 [Compound 167] |
| A (A=greater than 200 fold) | Cc1ccc(-c2cc3ccccc3[nH]2)c(CNc2nc(N3CCC(N)CC3)nc3c(C(C)C)cnn23)c1 [Compound 190] |

| SMILES | CDK1/CDK7: Selectivity of CDK7 inhibition over CDK1 inhibition |
| --- | --- |
| Cc1ccc(CNc2nc(N3CCC(N)CC3)nc3c(C(C)C)cnn23)c(-c2cc3ccccc3[nH]2)c1 [Compound 191] | B (B=less than 200 fold, but greater than 20 fold) |

Same assay, conditions: CDK7 over CDK2

| SMILES | CDK2/CDK7: Selectivity of CDK7 inhibition over CDK2 inhibition |
| --- | --- |
| CC(C)c1cnn2c(NCc3ccccc3-n3cccn3)nc(-c3cccc(C4CCNCC4)c3)nc12 [Compound 165] | B (B=less than 200 fold, but greater than 20 fold) |
| CC(C)c1cnn2c(NCc3ccccc3-n3cccn3)nc(-c3cccc(N4CCNCC4)c3)nc12 [Compound 167] | B (B=less than 200 fold, but greater than 20 fold) |
| Cc1ccc(-c2cc3ccccc3[nH]2)c(CNc2nc(N3CCC(N)CC3)nc3c(C(C)C)cnn23)c1 [Compound 190] | A (A=greater than 200 fold) |
| Cc1ccc(CNc2nc(N3CCC(N)CC3)nc3c(C(C)C)cnn23)c(-c2cc3ccccc3[nH]2)c1 [Compound 191] | B (B=less than 200 fold, but greater than 20 fold) |

Same assay, conditions: CDK7 over CDK5

| SMILES | CDK5/CDK7: Selectivity of CDK7 inhibition over CDK5 inhibition |
| --- | --- |
| CC(C)c1cnn2c(NCc3ccccc3-n3cccn3)nc(-c3cccc(C4CCNCC4)c3)nc12 [Compound 165] | B (B=less than 200 fold, but greater than 20 fold) |
| CC(C)c1cnn2c(NCc3ccccc3-n3cccn3)nc(-c3cccc(N4CCNCC4)c3)nc12 [Compound 167] | B (B=less than 200 fold, but greater than 20 fold) |
| Cc1ccc(-c2cc3ccccc3[nH]2)c(CNc2nc(N3CCC(N)CC3)nc3c(C(C)C)cnn23)c1 [Compound 190] | B (B=less than 200 fold, but greater than 20 fold) |
| Cc1ccc(CNc2nc(N3CCC(N)CC3)nc3c(C(C)C)cnn23)c(-c2cc3ccccc3[nH]2)c1 [Compound 191] | B (B=less than 200 fold, but greater than 20 fold) |

Same assay, conditions: read-out: CDK7 enzymatic activity (IC50 range)

| IC50 [µM] | SMILES |
| --- | --- |
| < 0.1 | CC(C)c1cnn2c(NCc3ccccc3-n3cccn3)nc(-c3cccc(C4CCNCC4)c3)nc12 [Compound 165] |
| < 0.1 | CC(C)c1cnn2c(NCc3ccccc3-n3cccn3)nc(-c3cccc(N4CCNCC4)c3)nc12 [Compound 167] |
| < 0.1 | Cc1ccc(-c2cc3ccccc3[nH]2)c(CNc2nc(N3CCC(N)CC3)nc3c(C(C)C)cnn23)c1 [Compound 190] |
| < 0.1 | Cc1ccc(CNc2nc(N3CCC(N)CC3)nc3c(C(C)C)cnn23)c(-c2cc3ccccc3[nH]2)c1 [Compound 191] |

Each molecule was assayed on MV4-11 (assay: Cellular MV4-11 viability assay (CellTiter-Glo, 72 hours)). Conditions: Homo sapiens.
Type: cell-based
Protocol: (§2) All cell lines were routinely tested for mycoplasma.
(§3) The effect of the CDK7 inhibitor to inhibit the growth of target cancer cells was evaluated through the 72 hours time period of viability assay. Briefly, the candidate cell line ware plated in 96 well plate at the following density of cells respectively. […] DMSO solvent without compound served as a control and final DMSO concentration less than 0.1%. After 72 hours of incubation at 37° C., 5% CO2 incubator, cells were analyzed for the viability using the CellTiter-Glo Luminescent Cell Viability Assay (Promega, Cat #G7570). All viability assays were performed in duplicate and Luminescence was read using an Envision (Perkin Elmer, USA). Data was analyzed using XLfit software.

| IC50 [µM] | SMILES |
| --- | --- |
| < 1 | CC(C)c1cnn2c(NCc3ccccc3-n3cccn3)nc(-c3cccc(C4CCNCC4)c3)nc12 [Compound 165] |
| < 1 | CC(C)c1cnn2c(NCc3ccccc3-n3cccn3)nc(-c3cccc(N4CCNCC4)c3)nc12 [Compound 167] |
| 1 to 10 | Cc1ccc(-c2cc3ccccc3[nH]2)c(CNc2nc(N3CCC(N)CC3)nc3c(C(C)C)cnn23)c1 [Compound 190] |
| < 1 | Cc1ccc(CNc2nc(N3CCC(N)CC3)nc3c(C(C)C)cnn23)c(-c2cc3ccccc3[nH]2)c1 [Compound 191] |

These molecules were tested against T2, CDK5/p25 (Homo sapiens, UniProt Q00535) (assay: Enzymatic assay for CDK5 (FRET based LANCE Ultra kinase assay)). Conditions: read-out: CDK5 enzymatic activity (IC50 range).
T2 construct: purchased Invitrogen PR8543B
Type: biochemical
Protocol: as §1
(§4) Inhibition activity of the respective compound on CDK kinase under Km value of ATP was tested in FRET based The LANCE® Ultra kinase assay (Perkin Elmer), which uses a ULight™-labeled peptide substrate and an appropriate Europium-labeled anti-phospho-antibody. Test compounds were made with DMSO solutions, and then 4-fold serial dilutions for 8 doses were prepared using automated liquid handler (POD810, LABCYTE) and 80 nL/well of diluted compound solutions were added into the 384-well plates (Greiner, Cat #784075). And then 68 nM of ULight-MBP peptide (Perkin Elmer, Cat #TRF0109-M) and 5 ul/well of ATP (Sigma, Cat #A7699) were added to the plate. After 1 min centrifugation at 1000 rpm, Purified CDKs/Cyclin complex were added following concentrations respectively. 24 uM for CDK1/Cyclin B (Invitrogen, Cat #PR4768C), 22 uM for CDK2/Cyclin A (Invitrogen, Cat #PV6290), 10 uM for CDK5/p25 (Invitrogen, Cat #PR8543B) and […] for CDK7/Cyclin H/MNAT1 (Invitrogen, Cat #PR6749B) were added to the each corresponding plate for CDK1, CDK2, CDK5 and CDK7. Incubate at 23° C. for 60 min and then Eu-labeled anti-phospho-Myelin Basic Protein (PE, Cat #TRF0201-M) and EDTA (Invitrogen, Cat #15575038) mixture in Lance Detection Buffer (Perkin Elmer, Cat #CR97100) was added in each well. After additional incubation at 23° C. for 60 min, test articles were measured the fluorescence using Envision leader (Perkin Elmer, USA) [Laser as excitation light; […] as the first and the second emission filter]. Data was analyzed using XL Fit software.

T2 sequence (Q00535 whole entry): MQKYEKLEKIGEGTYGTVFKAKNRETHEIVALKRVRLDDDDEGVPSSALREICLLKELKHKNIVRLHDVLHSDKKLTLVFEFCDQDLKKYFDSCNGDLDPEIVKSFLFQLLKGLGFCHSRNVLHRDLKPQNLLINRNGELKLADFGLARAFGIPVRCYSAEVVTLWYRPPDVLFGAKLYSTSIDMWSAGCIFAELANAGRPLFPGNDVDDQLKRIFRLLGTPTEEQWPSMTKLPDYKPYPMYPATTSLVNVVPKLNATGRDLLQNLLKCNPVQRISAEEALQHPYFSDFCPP
T2 sequence (Q15078 99-307 partner limits assumed): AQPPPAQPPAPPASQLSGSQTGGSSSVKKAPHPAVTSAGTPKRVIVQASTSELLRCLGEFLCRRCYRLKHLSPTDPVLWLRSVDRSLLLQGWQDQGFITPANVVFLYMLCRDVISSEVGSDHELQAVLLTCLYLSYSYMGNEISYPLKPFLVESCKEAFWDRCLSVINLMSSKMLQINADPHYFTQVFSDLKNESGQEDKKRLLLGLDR

| IC50 [µM] | SMILES |
| --- | --- |
| 0.1 to 1 | CC(C)c1cnn2c(NCc3ccccc3-n3cccn3)nc(-c3cccc(C4CCNCC4)c3)nc12 [Compound 165] |
| 0.1 to 1 | CC(C)c1cnn2c(NCc3ccccc3-n3cccn3)nc(-c3cccc(N4CCNCC4)c3)nc12 [Compound 167] |
| > 1 | Cc1ccc(-c2cc3ccccc3[nH]2)c(CNc2nc(N3CCC(N)CC3)nc3c(C(C)C)cnn23)c1 [Compound 190] |
| 0.1 to 1 | Cc1ccc(CNc2nc(N3CCC(N)CC3)nc3c(C(C)C)cnn23)c(-c2cc3ccccc3[nH]2)c1 [Compound 191] |

These molecules were tested against T3, CDK1/Cyclin B (Homo sapiens, UniProt P06493) (assay: Enzymatic assay for CDK1 (FRET based LANCE Ultra kinase assay)). Conditions: read-out: CDK1 enzymatic activity (IC50 range).
T3 construct: purchased Invitrogen PR4768C
Type: biochemical
Protocol: as §1, §4

T3 sequence (P06493 whole entry): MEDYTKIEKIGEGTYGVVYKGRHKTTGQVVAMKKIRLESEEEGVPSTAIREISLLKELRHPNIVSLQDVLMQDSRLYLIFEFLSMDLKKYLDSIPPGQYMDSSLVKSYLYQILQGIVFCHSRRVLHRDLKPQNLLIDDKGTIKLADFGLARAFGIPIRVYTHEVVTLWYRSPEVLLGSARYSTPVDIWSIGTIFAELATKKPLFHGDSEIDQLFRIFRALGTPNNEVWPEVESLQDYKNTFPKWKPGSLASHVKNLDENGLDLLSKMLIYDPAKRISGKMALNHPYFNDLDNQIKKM
T3 sequence (P14635 whole entry partner): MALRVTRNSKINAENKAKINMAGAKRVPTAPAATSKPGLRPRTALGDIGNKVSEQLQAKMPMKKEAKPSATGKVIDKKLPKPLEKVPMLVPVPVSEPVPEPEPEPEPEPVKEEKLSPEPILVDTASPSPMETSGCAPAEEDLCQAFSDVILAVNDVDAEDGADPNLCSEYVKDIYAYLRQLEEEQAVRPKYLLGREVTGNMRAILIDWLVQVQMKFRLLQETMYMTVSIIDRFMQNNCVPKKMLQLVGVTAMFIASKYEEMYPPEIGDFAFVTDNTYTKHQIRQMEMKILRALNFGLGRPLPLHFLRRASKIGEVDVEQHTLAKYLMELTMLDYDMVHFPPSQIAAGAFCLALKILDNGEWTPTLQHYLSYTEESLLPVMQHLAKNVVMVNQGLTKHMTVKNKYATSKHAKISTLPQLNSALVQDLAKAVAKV

| IC50 [µM] | SMILES |
| --- | --- |
| > 1 | CC(C)c1cnn2c(NCc3ccccc3-n3cccn3)nc(-c3cccc(C4CCNCC4)c3)nc12 [Compound 165] |
| > 1 | CC(C)c1cnn2c(NCc3ccccc3-n3cccn3)nc(-c3cccc(N4CCNCC4)c3)nc12 [Compound 167] |
| > 1 | Cc1ccc(-c2cc3ccccc3[nH]2)c(CNc2nc(N3CCC(N)CC3)nc3c(C(C)C)cnn23)c1 [Compound 190] |
| 0.1 to 1 | Cc1ccc(CNc2nc(N3CCC(N)CC3)nc3c(C(C)C)cnn23)c(-c2cc3ccccc3[nH]2)c1 [Compound 191] |

These molecules were tested on H460 (assay: Cellular H460 viability assay (CellTiter-Glo, 72 hours)). Conditions: Homo sapiens, NCI-H460.
Type: cell-based
Protocol: as §2, §3

| IC50 [µM] | SMILES |
| --- | --- |
| < 1 | CC(C)c1cnn2c(NCc3ccccc3-n3cccn3)nc(-c3cccc(C4CCNCC4)c3)nc12 [Compound 165] |
| < 1 | CC(C)c1cnn2c(NCc3ccccc3-n3cccn3)nc(-c3cccc(N4CCNCC4)c3)nc12 [Compound 167] |
| 1 to 10 | Cc1ccc(-c2cc3ccccc3[nH]2)c(CNc2nc(N3CCC(N)CC3)nc3c(C(C)C)cnn23)c1 [Compound 190] |
| < 1 | Cc1ccc(CNc2nc(N3CCC(N)CC3)nc3c(C(C)C)cnn23)c(-c2cc3ccccc3[nH]2)c1 [Compound 191] |

The molecules below were run against T4, CDK2/Cyclin A (Homo sapiens, UniProt P24941) (assay: Enzymatic assay for CDK2 (FRET based LANCE Ultra kinase assay)). Conditions: read-out: CDK2 enzymatic activity (IC50 range).
T4 construct: purchased Invitrogen PV6290
Type: biochemical
Protocol: as §1, §4

| IC50 [µM] | SMILES |
| --- | --- |
| > 1 | CC(C)c1cnn2c(NCc3ccccc3-n3cccn3)nc(-c3cccc(C4CCNCC4)c3)nc12 [Compound 165] |
| > 1 | CC(C)c1cnn2c(NCc3ccccc3-n3cccn3)nc(-c3cccc(N4CCNCC4)c3)nc12 [Compound 167] |
| > 1 | Cc1ccc(-c2cc3ccccc3[nH]2)c(CNc2nc(N3CCC(N)CC3)nc3c(C(C)C)cnn23)c1 [Compound 190] |
| 0.1 to 1 | Cc1ccc(CNc2nc(N3CCC(N)CC3)nc3c(C(C)C)cnn23)c(-c2cc3ccccc3[nH]2)c1 [Compound 191] |
